Experiments:
Details in all cases: 72 h
Calu-3 [1] = test: cell viability relative to DMSO; higher = less toxic
HepG2 [2] = test: as above
Calu-3 [3] = test: relative viability EC50 (midpoint between 100% and the lowest measured viability); higher = less toxic
HepG2 [4] = test: as above
Calu-3 [5] = test: drug sensitivity score (DSS) for viability; higher = more toxic; extreme values may be limits of the assay
HepG2 [6] = test: as above
Caco-2 [7] = test: cell viability relative to DMSO; higher = less toxic
U2OS [8] = test: as above
Vero E6 [9] = test: as above
Caco-2 [10] = test: drug sensitivity score (DSS) for viability; higher = more toxic; extreme values may be limits of the assay
U2OS [11] = test: as above
Vero E6 [12] = test: as above
Caco-2 [13] = test: relative viability EC50 (midpoint between 100% and the lowest measured viability); higher = less toxic
U2OS [14] = test: as above
Vero E6 [15] = test: as above

Row | SMILES | cell viability (Calu-3 [1]; 1 nM) [%] | cell viability (Calu-3 [1]; 10 nM) [%] | cell viability (Calu-3 [1]; 100 nM) [%] | cell viability (Calu-3 [1]; 1000 nM) [%] | cell viability (Calu-3 [1]; 10000 nM) [%] | cell viability (HepG2 [2]; 1 nM) [%] | cell viability (HepG2 [2]; 10 nM) [%] | cell viability (HepG2 [2]; 100 nM) [%] | cell viability (HepG2 [2]; 1000 nM) [%] | cell viability (HepG2 [2]; 10000 nM) [%] | relative viability EC50 (Calu-3 [3]) [µM] | relative viability EC50 (HepG2 [4]) [µM] | drug sensitivity score (Calu-3 [5]) | drug sensitivity score (HepG2 [6]) | cell viability (Caco-2 [7]; 1 nM) [%] | cell viability (Caco-2 [7]; 10 nM) [%] | cell viability (Caco-2 [7]; 100 nM) [%] | cell viability (Caco-2 [7]; 1000 nM) [%] | cell viability (Caco-2 [7]; 10000 nM) [%] | cell viability (U2OS [8]; 1 nM) [%] | cell viability (U2OS [8]; 10 nM) [%] | cell viability (U2OS [8]; 100 nM) [%] | cell viability (U2OS [8]; 1000 nM) [%] | cell viability (U2OS [8]; 10000 nM) [%] | cell viability (Vero E6 [9]; 1 nM) [%] | cell viability (Vero E6 [9]; 10 nM) [%] | cell viability (Vero E6 [9]; 100 nM) [%] | cell viability (Vero E6 [9]; 1000 nM) [%] | cell viability (Vero E6 [9]; 10000 nM) [%] | drug sensitivity score (Caco-2 [10]) | drug sensitivity score (U2OS [11]) | drug sensitivity score (Vero E6 [12]) | relative viability EC50 (Caco-2 [13]) [µM] | relative viability EC50 (U2OS [14]) [µM] | relative viability EC50 (Vero E6 [15]) [µM]
1 | CC(C)(NS(=O)(=O)c1ccc(Oc2ccc(F)cc2)cc1)C(=O)NO | 106 | 96.3 | 98.9 | 97.9 | 94.3 | 110 | 111 | 98.3 | 110 | 80.7 | > 10 | > 10 | 0 | 0.3 |  |  |  |  |  |  |  |  |  |  |  |  |  |  |  |  |  |  |  |  | 
2 | CCc1cc(-c2[nH]nc(C)c2-c2ccc3c(c2)OCCO3)c(O)cc1O | 93.2 | 94.6 | 101 | 89.7 | 58.8 | 94.7 | 91.1 | 104 | 81.1 | 11.1 |  | 1.68 | 3.7 | 8 | 103 | 92 | 98 | 89.7 | 53 | 99.2 | 94.9 | 98.3 | 99.7 | 65.6 | 99.4 | 104 | 101 | 95.9 | 67.9 | 4.1 | 1.6 | 2.1 |  |  | 
3 | Cc1nc2sccn2c(=O)c1CCN1CCC(=C(c2ccccc2)c2ccc(F)cc2)CC1 |  |  |  |  |  | 104 | 96.3 | 100 | 96.9 | 95.8 |  | > 10 |  | 0 | 95.3 | 86.7 | 97 | 98.4 | 97.2 | 95.6 | 97.6 | 97.3 | 98.7 | 95 | 102 | 101 | 107 | 100 | 94.5 | 0 | 0 | 0 | > 10 | > 10 | > 10
4 | Cn1c(=O)cnn(CCCCN2CCN(c3ncccn3)CC2)c1=O | 111 | 91.3 | 102 | 120 | 103 | 111 | 114 | 95.2 | 116 | 106 | > 10 | > 10 | 0 | 0 |  |  |  |  |  | 103 | 97.1 | 103 | 97.8 | 103 |  |  |  |  |  |  | 0 |  |  | > 10 | 
5 | O=C(NOCC1CC1)c1ccc(F)c(F)c1Nc1ccc(I)cc1Cl |  |  |  |  |  | 96.9 | 89.3 | 84.2 | 31.6 | 19.4 |  | 0.277 |  | 14.6 | 97.4 | 94.6 | 89.3 | 75.3 | 65.6 | 101 | 97.1 | 94.9 | 91.4 | 85.3 | 94.5 | 98.5 | 84.4 | 65.9 | 50.6 | 5.1 | 0.4 | 7.9 |  | > 10 | 
6 | CC(C)[C@@H](C(=O)Nc1nccs1)c1ccc(Cl)cc1 [4-CMTB] | 111 | 107 | 102 | 97.8 | 68.1 | 95.7 | 95.4 | 94.1 | 99.7 | 63.3 |  |  | 1.8 | 1.8 |  |  |  |  |  | 104 | 108 | 106 | 102 | 85.5 | 107 | 107 | 98 | 96.4 | 92.9 |  | 0.1 | 0 |  | > 10 | > 10
7 | Cc1nc(NC(=O)N2CCC[C@H]2C(N)=O)sc1-c1csc(C(C)(C)C)n1 [A66] |  |  |  |  |  | 84.2 | 96 | 84 | 89.8 | 73.3 |  | > 10 |  | 0 | 98.5 | 87.5 | 95.8 | 92 | 78.9 | 103 | 97.4 | 98.6 | 93 | 88.7 | 98.5 | 96.5 | 95.3 | 101 | 87.9 | 1 | 0 | 0 | > 10 | > 10 | > 10
8 | CCCn1c(=O)c2[nH]c(C3CCCC3)nc2n(CCC)c1=O [DPCPX] |  |  |  |  |  | 102 | 105 | 99.8 | 101 | 91.5 |  | > 10 |  | 0 | 105 | 106 | 106 | 106 | 93.3 | 100 | 102 | 99.8 | 96.6 | 100 | 106 | 107 | 98.2 | 99.8 | 89.1 | 0 | 0 | 0 | > 10 | > 10 | > 10
9 | COC(=O)N[C@@H](C)CNc1nccc(-c2cn(C(C)C)nc2-c2cc(Cl)cc(NS(C)(=O)=O)c2F)n1 [Encorafenib (LGX818)] |  |  |  |  |  | 96.2 | 91.7 | 79.7 | 38.4 | 11.1 |  | 0.37 |  | 14.2 | 103 | 89.5 | 97 | 88.4 | 69.5 | 101 | 104 | 106 | 94.2 | 82 | 106 | 106 | 109 | 116 | 71.6 | 2.4 | 1.1 | 0.7 |  | > 10 | 
10 | CSc1nc2ccc3nc(NC(=O)C(c4ccccc4)c4ccccc4)sc3c2s1 [Gue-1654] |  |  |  |  |  | 96.4 | 106 | 98.3 | 102 | 92.6 |  | > 10 |  | 0 | 100 | 100 | 94.7 | 93.6 | 80.5 | 100 | 95.9 | 98.8 | 97.1 | 98.2 | 104 | 107 | 99.6 | 97.8 | 105 | 0.7 | 0 | 0 | > 10 | > 10 | > 10
11 | CCC(CC)Nc1nc(C)c(-c2ccc(OC(F)(F)F)cc2OC)nc1OC [NGD-98-2] |  |  |  |  |  | 102 | 98.8 | 90.8 | 100 | 96.3 |  | > 10 |  | 0 | 94.8 | 92.9 | 96.3 | 90.9 | 81.6 | 98.7 | 98.5 | 95.1 | 99.3 | 97.7 | 99.9 | 104 | 100 | 99.1 | 99.2 | 0.6 | 0 | 0 | > 10 | > 10 | > 10
12 | Cc1ccc(-c2nn(C(C)(C)CNC(=O)c3ncccc3C)c3ncnc(N)c23)cc1 [WEHI-345-analog] | 99.6 | 110 | 86 | 97.8 | 52.2 | 109 | 97.5 | 99.7 | 94.6 | 34.2 |  | 2.49 | 2.8 | 4.5 | 96.3 | 100 | 95.5 | 101 | 58.9 | 98.3 | 108 | 94.3 | 104 | 38.4 | 100 | 97.7 | 99.8 | 95.7 | 37.2 | 2 | 3 | 4.1 |  | 3.51 | 2.62
13 | COc1cc(Nc2ncc3c(n2)-c2ccc(Cl)cc2C(c2c(F)cccc2OC)=NC3)ccc1C(=O)O [alisertib] | 106 | 105 | 98.1 | 88.4 | 78.8 | 102 | 98 | 58.7 | 66.6 | 61.4 | > 10 |  | 1.6 | 13.1 | 102 | 90 | 83 | 87.9 | 72.8 | 102 | 99.7 | 81.5 | 78.2 | 58.6 | 96.3 | 103 | 84.4 | 82.7 | 67 | 3.5 | 5.7 | 4.1 |  |  | 
14 | CCOC(=O)OC(C)OC1=C(C(=O)Nc2ccccn2)N(C)S(=O)(=O)c2ccccc21 (stereo not given) [ampiroxicam] |  |  |  |  |  | 91.9 | 102 | 101 | 101 | 103 |  | > 10 |  | 0 | 94.6 | 99.9 | 86.5 | 96.9 | 97.3 | 97.2 | 102 | 93.9 | 98 | 95 |  |  |  |  |  | 0 | 0 |  | > 10 | > 10 | 
15 | O=C1[O][SbH]23[O]C(=O)C([O]2)C2[O][SbH]4([O]C(=O)C([O]4)C1[O]3)[O]C2=O [antimonyl] |  |  |  |  |  | 96.3 | 105 | 101 | 95.7 | 48 |  | 2.48 |  | 3.4 | 106 | 94.7 | 99.2 | 84.7 | 71.5 | 95.6 | 97.1 | 97.6 | 96.5 | 84.8 | 98.7 | 103 | 106 | 107 | 102 | 2.8 | 0.5 | 0 |  | > 10 | > 10
16 | CNC(=O)[C@H](Cc1ccccc1)NC(=O)[C@H](CC(C)C)[C@H](CSc1cccs1)C(=O)NO [batimastat] | 92.9 | 96.2 | 89.4 | 82.9 | 65.5 | 98.2 | 95.6 | 99 | 90.9 | 93.6 |  | > 10 | 3.8 | 0 | 94.1 | 105 | 92.8 | 94.2 | 85 | 94.3 | 105 | 97 | 98.4 | 90.1 | 93.4 | 97.7 | 92.3 | 84.4 | 83.8 | 0.3 | 0 | 1.4 | > 10 | > 10 | > 10
